Laboratory results: PMC11536076, “Intraoperative Guidance of Pancreatic Cancer Resection Using a Toll-like Receptor 2–Targeted Fluorescence Molecular Imaging Agent” (Cancer Research Communications, 2024)

Experiments:
[1] = Absorbance and fluorescence emission spectra; type: physicochemical
Procedure: Absorbance and fluorescence emission spectra were generated using a Tecan Infinite M-1000 PRO multimode microplate reader. Solutions of TLR2L-800 were prepared from a 0.367 mmol/L stock solution in DMSO. Aliquots (2 µL) of TLR2L-800 were spotted on each well of a Tecan NanoQuant plate. The absorbance spectrum of TLR2L-800 (183.5 µmol/L in PBS) was acquired from 230 to 1,000 nm with a wavelength step size of 2 nm. The emission spectrum of TLR2L-800 (0.367 mmol/L in DMSO) was acquired with an excitation wavelength starting from 275 nm and emission wavelengths from 450 to 850 nm with an emission wavelength step size of 2 nm and bandwidth of 5 nm.

[2] = set-up: method as in LI-COR product sheet; conditions: unconjugated dye in water; ref LI-COR product sheet; cited from earlier work

Stokes shift [1]: 15 nm
SMILES: CC1(C)C(=CC=C2CCCC(C=CC3=[N+](CCCCCC(=O)[O-])c4ccc(S(=O)(=O)[O-])cc4C3(C)C)=C2Oc2ccc(S(=O)(=O)[O-])cc2)N(CCCCS(=O)(=O)[O-])c2ccc(S(=O)(=O)[O-])cc21.[Na+].[Na+].[Na+].[Na+] [IRDye800CW]
absorbance maxima [2]: 774 nm | emission maxima [2]: 789 nm
